Assay results from ChEMBL document CHEMBL1201862, “PubChem BioAssay data set” (2004).
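1) Cells in 96-well plates. 2) Compound, 48 h, 5 concentrations. 3) Linear interpolation between surrounding doses. 4) Unreached endpoint = highest concentration. GI50 = concentration required for 50% inhibition of growth.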 Active and inactive are the calls of the source. Cut-off read from the data, not from the text of the source: active = GI50 up to about 1.1 µM and inactive = higher.

Tests used:
Test in all cases: NCI-60 cell line screen, 48 h
[1] = test system: HOP-92
[2] = test system: SK-MEL-5
[3] = test system: ACHN
[4] = test system: HOP-62
[5] = test system: UO-31
[6] = test system: UACC-257
[7] = test system: RPMI-8226
[8] = test system: NCI-H460
[9] = test system: HL-60
[10] = test system: 786-0
[11] = test system: DU-145
[12] = test system: OVCAR-4
[13] = test system: IGROV-1
[14] = test system: SF-268
[15] = test system: CCRF-CEM
[16] = test system: EKVX
[17] = test system: TK-10
[18] = test system: SF-295
[19] = test system: OVCAR-3
[20] = test system: NCI/ADR-RES
[21] = test system: SR
[22] = test system: NCI-H23
[23] = test system: A498
[24] = test system: PC-3
[25] = test system: MDA-N
[26] = test system: SNB-19
[27] = test system: SK-MEL-28
[28] = test system: U-251
[29] = test system: NCI-H226
[30] = test system: MOLT-4
[31] = test system: MDA-MB-231
[32] = test system: Hs-578T
[33] = test system: K562
[34] = test system: NCI-H522
[35] = test system: COLO 205
[36] = test system: CAKI-1
[37] = test system: OVCAR-5
[38] = test system: RXF 393
[39] = test system: HCC 2998
[40] = test system: HCT-15
[41] = test system: OVCAR-8
[42] = test system: SK-MEL-2
[43] = test system: SW-620
[44] = test system: SF-539
[45] = test system: M14
[46] = test system: MCF7
[47] = test system: SK-OV-3
[48] = test system: KM12
[49] = test system: SN12C
[50] = test system: LOX IMVI
[51] = test system: A549
[52] = test system: MDA-MB-435
[53] = test system: UACC-62
[54] = test system: HCT-116
[55] = test system: HT-29

CC1(C)CCC[C@]2(C)[C@H]3[C@H](C#N)c4cc(O)c(O)cc4O[C@@]3(C)CC[C@@H]12
GI50 [1]: > 10 µM (inactive)
GI50 [2]: > 10 µM (inactive)
GI50 [3]: > 10 µM (inactive)
GI50 [4]: > 10 µM (inactive)
GI50 [5]: 5.87 µM (inactive)
GI50 [6]: > 10 µM (inactive)
GI50 [7]: > 10 µM (inactive)
GI50 [8]: > 10 µM (inactive)
GI50 [9]: > 10 µM (inactive)
GI50 [10]: > 10 µM (inactive)
GI50 [11]: > 10 µM (inactive)
GI50 [12]: > 10 µM (inactive)
GI50 [13]: > 10 µM (inactive)
GI50 [14]: > 10 µM (inactive)
GI50 [15]: > 10 µM (inactive)
GI50 [16]: > 10 µM (inactive)
GI50 [17]: > 10 µM (inactive)
GI50 [18]: > 10 µM (inactive)
GI50 [19]: > 10 µM (inactive)
GI50 [20]: > 10 µM (inactive)
GI50 [21]: > 10 µM (inactive)
GI50 [22]: > 10 µM (inactive)
GI50 [23]: > 10 µM (inactive)
GI50 [24]: > 10 µM (inactive)
GI50 [25]: > 10 µM (inactive)
GI50 [26]: > 10 µM (inactive)
GI50 [27]: > 10 µM (inactive)
GI50 [28]: > 10 µM (inactive)
GI50 [29]: > 10 µM (inactive)
GI50 [30]: > 10 µM (inactive)
GI50 [31]: > 10 µM (inactive)
GI50 [32]: > 10 µM (inactive)
GI50 [33]: > 10 µM (inactive)
GI50 [34]: > 10 µM (inactive)
GI50 [35]: > 10 µM (inactive)
GI50 [36]: > 10 µM (inactive)
GI50 [37]: > 10 µM (inactive)
GI50 [38]: > 10 µM (inactive)
GI50 [39]: > 10 µM (inactive)
GI50 [40]: > 10 µM
GI50 [41]: > 10 µM (inactive)
GI50 [42]: > 10 µM (inactive)
GI50 [43]: > 10 µM (inactive)
GI50 [44]: > 10 µM (inactive)
GI50 [45]: > 10 µM (inactive)
GI50 [46]: > 10 µM (inactive)
GI50 [47]: > 10 µM (inactive)
GI50 [48]: > 10 µM (inactive)
GI50 [49]: > 10 µM (inactive)
GI50 [50]: > 10 µM (inactive)

Cc1cc(N)c2ccccc2[n+]1CCCCCCCCCCNc1cc(C)[n+](CCCCCCCCCC[n+]2c(C)cc(N)c3ccccc32)c2ccccc12
GI50 [51]: 0.692 µM (active)
GI50 [2]: 0.439 µM (active)
GI50 [3]: 0.964 µM (active)
GI50 [4]: 0.929 µM (active)
GI50 [5]: 1.86 µM (inactive)
GI50 [52]: 0.427 µM (active)
GI50 [7]: 0.352 µM (active)
GI50 [10]: 0.547 µM (active)
GI50 [11]: 1.75 µM (inactive)
GI50 [13]: 1.35 µM (inactive)
GI50 [15]: 0.52 µM (active)
GI50 [16]: 14.6 µM (inactive)
GI50 [18]: 1.32 µM (inactive)
GI50 [19]: 1.56 µM (inactive)
GI50 [22]: 0.516 µM (active)
GI50 [24]: 1.02 µM (active)
GI50 [25]: 0.333 µM (active)
GI50 [53]: 0.608 µM (active)
GI50 [27]: 0.528 µM (active)
GI50 [28]: 0.406 µM (active)
GI50 [30]: 1.01 µM (active)
GI50 [33]: 0.4 µM (active)
GI50 [35]: 0.375 µM (active)
GI50 [36]: 34.6 µM (inactive)
GI50 [37]: 1.49 µM (inactive)
GI50 [39]: 0.759 µM (active)
GI50 [40]: 1.75 µM
GI50 [41]: 1.61 µM (inactive)
GI50 [42]: 1.41 µM (inactive)
GI50 [43]: 2.23 µM (inactive)
GI50 [45]: 0.746 µM (active)
GI50 [46]: 0.682 µM (active)
GI50 [48]: 0.618 µM (active)
GI50 [54]: 1.35 µM (inactive)
GI50 [49]: 0.293 µM (active)
GI50 [55]: 11.6 µM (inactive)
GI50 [50]: 1.79 µM (inactive)
